Measured values reported in patent US4089965A, “Thiazolylphenylguanidines as antirhinovirus agents” (American Cyanamid Company, priority 1977, dated 1978).
In brackets after ≈: the same amount, converted by molar mass. Several values for one entry are separate records, joined by “and”; a condition that tells them apart may be missing. Identical values can stand only once.

Columns and labels:
Rhinovirus Serotype 1B = experiment: Plaque assay, minimal inhibitory concentration; type: cell-based; conditions: Enterovirus, inhibiting virus plaque formation by 50%
rhinovirus 32 = experiment: Clinical challenge study in volunteers, clinical symptoms and infection; type: in vivo, human; conditions: intranasal

## N=C(Nc1ccccc1)Nc1nc(-c2ccccc2)cs1 [1-(4-phenyl-2-thiazolyl)-3-phenylguanidine]
Rhinovirus Serotype 1B; L132, L-132 Cells
  IC50: 0.8 µg/mL (≈ 2.72 µM)
Rhinovirus Serotype 1B; HeLa Cells
  IC50: 0.8 to 1.6 µg/mL (≈ 2.72 to 5.44 µM)
Rhinovirus 32; individual subjects on medication (No. 3, 4, 6, 7, 9, 10, 13, 14, 17, 20, in order of lines), signs and symptoms scaled 0 not present to +3 severe
  Clinical Symptom Scores: 0 and 11 and 2 and 4 and 3 and 5 and 6 and 1
Rhinovirus 32
  protection of humans from rhinovirus type 32 infection: effective in protecting humans from rhinovirus type 32 infection
Rhinovirus 32; rhinovirus type 32 challenge, placebo 4 of 10
  volunteers who did not develop rhinovirus infection from challenge: 9 of 10
